Experimental data as given in patent US5416222A, “3-pyrrolidine methanamines wherein the alpha-carbon is substituted by 1 or 2 lower alkyl groups which are intermediates for pyridone-carboxylic acid derivatives” (Daiichi Seiyaku Co., Ltd., priority 1985, dated 1995).
Converted amounts (≈) assume the structure as drawn. Like-named read-outs stand apart in the source and are kept apart here.

How the values were obtained:
[1] = test system: Ps. cepacia, IID1340; test: antimicrobial activity, MIC, standard process of Japan Society of Chemotherapy; assay type: cell-based; details: for minimum growth inhibitory concentration (MIC): Ps. cepacia; for MIC: Burkholderia cepacia, IID1340, Ps. cepacia, read-out: minimum growth inhibitory concentration (MIC)
Protocol: (§1) The antimicrobial activities of the compounds of the present invention were determined according to a standard process designated by the Japan Society of Chemotherapy and the minimum growth inhibitory concentrations (MIC) (μg/ml) the compounds were determined.

[2] = test system: S. aureus, 209P; test: as above; assay type: cell-based; details: for MIC: Staphylococcus aureus, read-out: minimum growth inhibitory concentration (MIC)
Protocol: as §1

[3] = test system: E. coli, NIHJ; test: as above; assay type: cell-based; details: for MIC: Escherichia coli, read-out: minimum growth inhibitory concentration (MIC)
Protocol: as §1

[4] = test system: Ser. marcescens, 13001; test: as above; assay type: cell-based; details: for minimum growth inhibitory concentration (MIC): Ser. marcescens; for MIC: Serratia marcescens, 13001, Ser. marcescens, read-out: minimum growth inhibitory concentration (MIC)
Protocol: as §1

[5] = test system: Ps. aeruginosa, 2128; test: as above; assay type: cell-based; details: for minimum growth inhibitory concentration (MIC): Ps. aeruginosa; for MIC: Pseudomonas aeruginosa, 2128, Ps. aeruginosa, read-out: minimum growth inhibitory concentration (MIC)
Protocol: as §1

[6] = test system: Ps. maltophilia, IID1275; test: as above; assay type: cell-based; details: for minimum growth inhibitory concentration (MIC): Ps. maltophilia; for MIC: Stenotrophomonas maltophilia, IID1275, Ps. maltophilia, read-out: minimum growth inhibitory concentration (MIC)
Protocol: as §1

[7] = test system: Sh. flexneri, 2a5503; test: as above; assay type: cell-based; details: for MIC: Shigella flexneri, read-out: minimum growth inhibitory concentration (MIC)
Protocol: as §1

[8] = test system: S. epidermidis, 56500; test: as above; assay type: cell-based; details: for minimum growth inhibitory concentration (MIC): S. epidermidis
Protocol: as §1

[9] = test system: Str. pyogenes, G-36; test: as above; assay type: cell-based; details: for minimum growth inhibitory concentration (MIC): Str. pyogenes; for MIC: Streptococcus pyogenes, G36, Str. pyogenes, read-out: minimum growth inhibitory concentration (MIC)
Protocol: as §1

[10] = test system: Pr. mirabilis, IF03849; test: as above; assay type: cell-based; details: for minimum growth inhibitory concentration (MIC): Pr. mirabilis; for MIC: Proteus mirabilis, IF03849, Pr. mirabilis, read-out: minimum growth inhibitory concentration (MIC)
Protocol: as §1

[11] = test system: Pr. vulgaris, 3167; test: as above; assay type: cell-based; details: for minimum growth inhibitory concentration (MIC): Pr. vulgaris; for MIC: Proteus vulgaris, 3167, Pr. vulgaris, read-out: minimum growth inhibitory concentration (MIC)
Protocol: as §1

[12] = test system: Ps. aeruginosa, 2063; test: as above; assay type: cell-based; details: for minimum growth inhibitory concentration (MIC): Ps. aeruginosa; for MIC: Pseudomonas aeruginosa, 2063, Ps. aeruginosa, read-out: minimum growth inhibitory concentration (MIC)
Protocol: as §1

[13] = test system: Str. faecalis, ATCC 19433; test: as above; assay type: cell-based; details: for minimum growth inhibitory concentration (MIC): Str. faecalis; for MIC: Enterococcus faecalis, ATCC19433, Str. faecalis, read-out: minimum growth inhibitory concentration (MIC)
Protocol: as §1

[14] = test system: Gram-negative microorganisms; test: antimicrobial activity against Gram-negative microorganisms (in words); assay type: cell-based
Protocol: as §1

[15] = test system: Gram-positive microorganisms; test: antimicrobial activity against Gram-positive microorganisms (in words); assay type: cell-based
Protocol: as §1

[16] = absorption after oral administration to rats; assay type: in vivo; details: rat, 20 mg/kg
Protocol: The compounds of the present invention and the comparative compound were orally given to rats (one group: 5 rats) at a dose of 20 mg/kg to measure the oral absorption of the compounds. The concentration of the compound in the blood of the rat was measured at 15 minutes, 30 minutes, and 1, 2, 3, 4, and 6 hours after administration.
Serum half lives (T1/2) were calculated as 0.693/Kel, where Kel is the elimination rate constant determined by linear regression analysis of the natural logarithm of serum concentration-time data. The area under the serum concentration-versus time curve from zero to 6 h (AUC0-6H) was calculated by the trapezoidal method, The results obtained are as follows: […]

[17] = physchem; assay type: physicochemical
Protocol: (§2) The water-solubility and acute toxicity of the compounds of the present invention and the comparative compounds, were measured. The results obtained are shown hereunder. The water-solubility was measured by the following method.
(i) Preparation of standard solution
About 400 μg of the sample to be measured was accurately weighed (the weight was defined as W μg), and 0.1N NaOH solution was added thereto to bring the whole volume to 50 ml. The UV absorbance of a given amount of the solution was measured and the measured absorbance was defined as A1.
(ii) Preparation of sample to be measured
Distilled water was added to the sample to be measured (fine powder) in such amount that the sample was not completely dissolved but suspended, and then the suspension was vigorously agitated at room temperature (between 23° and 26° C.) for 30 minutes. Insoluble matter of the sample was removed therefrom by filtration, after which 3 ml sample of the filtrate (satulated aqueous solution of the sample) was taken. 3 ml of 0.2N NaOH solution was added to the filtrate sample to bring the total volume to 6 ml (i.e. the filtrate was diluted to 50% concentration.) To 1 ml of the resulting solution, 0.1N NaOH solution was further added to bring the total volume to 25 ml […]. In this connection, degree of dilution was occasionally changed, depending on degree of UV absorbance. The UV absorbance of the given amount of the solution was measured and the resulting absorbance was defined to as A2. Where the number of dilution is N, water-solubility (s) is obtained from the following equation: [formula]

[18] = test system: mouse; test: acute toxicity to mouse; assay type: in vivo; details: 200 mg/kg; i.v.
Protocol: as §2
(§3) *200 mg/kg; i.v, (deaths/total number) As is obvious from the above

[19] = in words, prior art discussion; cited from earlier work
[20] = test system: Gram-negative microorganisms; details: in words, prior art discussion; cited from earlier work
[21] = test system: Gram-positive microorganisms; details: in words, prior art discussion; cited from earlier work
[22] = acute toxicity to mouse; assay type: in vivo; details: mouse, in vivo, iv; 200 mg/kg
Protocol: as §2, §3

SMILES | minimum growth inhibitory concentration (MIC) [1] [µg/mL] | minimum growth inhibitory concentration (MIC) [2] [µg/mL] | minimum growth inhibitory concentration (MIC) [3] [µg/mL] | minimum growth inhibitory concentration (MIC) [4] [µg/mL] | minimum growth inhibitory concentration (MIC) [5] [µg/mL] | minimum growth inhibitory concentration (MIC) [6] [µg/mL] | minimum growth inhibitory concentration (MIC) [7] [µg/mL] | minimum growth inhibitory concentration (MIC) [8] [µg/mL] | minimum growth inhibitory concentration (MIC) [9] [µg/mL] | minimum growth inhibitory concentration (MIC) [10] [µg/mL] | minimum growth inhibitory concentration (MIC) [11] [µg/mL] | minimum growth inhibitory concentration (MIC) [12] [µg/mL] | minimum growth inhibitory concentration (MIC) [13] [µg/mL] | anti-microbial activity against Gram-negative microorganisms [14] | anti-microbial activity against Gram-positive microorganisms [15] | MIC [1] [µg/mL] | MIC [2] [µg/mL] | MIC [3] [µg/mL] | MIC [4] [µg/mL] | MIC [5] [µg/mL] | other results
CC(N)C1CCN(c2c(F)cc3c(=O)c(C(=O)O)cn(C4CC4)c3c2F)C1 (single isomer, unassigned) [Example 2, 7-[3-(1-Aminoethyl)-1-pyrrolidinyl]-1-cyclopropyl-6,8-difluoro-1,4-dihydro-4-oxoquinoline-3-carboxylic acid] | 0.39 | ≤ 0.05 | ≤ 0.05 | ≤ 0.05 | ≤ 0.05 | 0.10 | ≤ 0.05 | ≤ 0.05 | ≤ 0.05 | ≤ 0.05 | ≤ 0.05 | 0.20 | ≤ 0.05 | extremely strong anti-microbial activity | extremely strong anti-microbial activity |  |  |  |  |  | 
CCn1cc(C(=O)O)c(=O)c2cc(F)c(N3CCC(C(C)N)C3)c(F)c21 (single isomer, unassigned) [Example 4, 7-[3-(1-Aminoethyl)-1-pyrrolidinyl]-1-ethyl-6,8-difluoro-1,4-dihydro-4-oxoquinoline-3-carboxylic acid] | 0.78 | ≤ 0.05 | ≤ 0.05 | 0.10 | 0.10 | 0.39 | ≤ 0.05 | ≤ 0.05 | ≤ 0.05 | 0.20 | 0.05 | 0.20 | ≤ 0.05 | extremely strong anti-microbial activity | extremely strong anti-microbial activity |  |  |  |  |  | 
CNCC1CCN(c2c(F)cc3c(=O)c(C(=O)O)cn(C4CC4)c3c2F)C1 (stereo not shown) [Compound B, 1-cyclopropyl-6,8-difluoro-(3-methylaminomethyl-1-pyrolidinyl)-1,4-dihydro-4-oxoquinoline-3-carboxylic acid, reference compound] |  |  |  |  |  |  |  |  |  |  |  |  |  |  |  | 1.56 (≈ 4.13 µM) | ≤ 0.05 | ≤ 0.05 | ≤ 0.05 | 0.2 (≈ 0.53 µM) | MIC [6]: 0.2 µg/mL (≈ 0.53 µM); MIC [7]: 0.1 µg/mL (≈ 0.265 µM); MIC [9]: 0.1 µg/mL (≈ 0.265 µM); MIC [10]: ≤ 0.05 µg/mL; MIC [11]: ≤ 0.05 µg/mL; MIC [12]: 0.2 µg/mL (≈ 0.53 µM); MIC [13]: 0.1 µg/mL (≈ 0.265 µM); half-life ([16]; serum half life, 0.693/Kel): 1.55 h; Cmax ([16]; serum, 5 rats per group): 1370 ng/mL; AUC(0-t) at 6 h ([16]; serum, zero to 6 h, trapezoidal method, read-out: AUC0-6H): 3610 ng·h/mL; solubility at 0.5 h ([17]; water): 80 µg/mL (≈ 212 µM); Acute toxicity to mouse [18]: 2/5; water-solubility (prior art compounds) [19]: extremely low water-solubility; antimicrobial activity against Gram-negative microorganisms (prior art compounds) [20]: strong antimicrobial activity
CCNCC1CCN(c2c(F)cc3c(=O)c(C(=O)O)cn(CC)c3c2F)C1 (stereo not shown) [Compound C, 1-Ethyl-7-[3-(ethylamino)methyl]-1-pyrolidinyl-6,8-difluoro-1,4-dihydro-4-oxo-3-quinolinecarboxylic acid, reference compound] |  |  |  |  |  |  |  |  |  |  |  |  |  |  |  | 1.56 (≈ 4.11 µM) | 0.1 (≈ 0.264 µM) | ≤ 0.05 | 0.2 (≈ 0.527 µM) | 0.39 (≈ 1.03 µM) | MIC [6]: 0.78 µg/mL (≈ 2.06 µM); MIC [7]: ≤ 0.05 µg/mL; MIC ([8]; Staphylococcus epidermidis, 56500, S. epidermidis, read-out: minimum growth inhibitory concentration (MIC)): 0.39 µg/mL (≈ 1.03 µM); MIC [9]: 0.78 µg/mL (≈ 2.06 µM); MIC [10]: 0.39 µg/mL (≈ 1.03 µM); MIC [11]: 0.2 µg/mL (≈ 0.527 µM); MIC [12]: 0.78 µg/mL (≈ 2.06 µM); MIC [13]: 0.39 µg/mL (≈ 1.03 µM); antimicrobial activity against Gram-positive microorganisms (prior art compounds) [21]: strong antimicrobial activity; solubility at 0.5 h ([17]; distilled water, room temperature (23° to 26° C.), 30 minutes agitation, read-out: Water solubility): 400 µg/mL (≈ 1050 µM); mortality [22]: 50%; water-solubility (prior art compounds) [19]: good water-solubility; antimicrobial activity against Gram-negative microorganisms (prior art compounds) [20]: a little weak
